Columns and labels:
[1] = target: T1, human mineralocorticoid receptor (MR) (Homo sapiens, UniProt P08235); assay: Nuclear hormone receptor functional modulation assay (GRE-luciferase reporter, HEK293), MR; format: cell-based; settings: agonist mode, mean of n=4 or 5
T1 construct: expressed in transfected cells; host or cells: HEK293, transient transfection, CMV promoter plasmid
T1 sequence (P08235 1-984): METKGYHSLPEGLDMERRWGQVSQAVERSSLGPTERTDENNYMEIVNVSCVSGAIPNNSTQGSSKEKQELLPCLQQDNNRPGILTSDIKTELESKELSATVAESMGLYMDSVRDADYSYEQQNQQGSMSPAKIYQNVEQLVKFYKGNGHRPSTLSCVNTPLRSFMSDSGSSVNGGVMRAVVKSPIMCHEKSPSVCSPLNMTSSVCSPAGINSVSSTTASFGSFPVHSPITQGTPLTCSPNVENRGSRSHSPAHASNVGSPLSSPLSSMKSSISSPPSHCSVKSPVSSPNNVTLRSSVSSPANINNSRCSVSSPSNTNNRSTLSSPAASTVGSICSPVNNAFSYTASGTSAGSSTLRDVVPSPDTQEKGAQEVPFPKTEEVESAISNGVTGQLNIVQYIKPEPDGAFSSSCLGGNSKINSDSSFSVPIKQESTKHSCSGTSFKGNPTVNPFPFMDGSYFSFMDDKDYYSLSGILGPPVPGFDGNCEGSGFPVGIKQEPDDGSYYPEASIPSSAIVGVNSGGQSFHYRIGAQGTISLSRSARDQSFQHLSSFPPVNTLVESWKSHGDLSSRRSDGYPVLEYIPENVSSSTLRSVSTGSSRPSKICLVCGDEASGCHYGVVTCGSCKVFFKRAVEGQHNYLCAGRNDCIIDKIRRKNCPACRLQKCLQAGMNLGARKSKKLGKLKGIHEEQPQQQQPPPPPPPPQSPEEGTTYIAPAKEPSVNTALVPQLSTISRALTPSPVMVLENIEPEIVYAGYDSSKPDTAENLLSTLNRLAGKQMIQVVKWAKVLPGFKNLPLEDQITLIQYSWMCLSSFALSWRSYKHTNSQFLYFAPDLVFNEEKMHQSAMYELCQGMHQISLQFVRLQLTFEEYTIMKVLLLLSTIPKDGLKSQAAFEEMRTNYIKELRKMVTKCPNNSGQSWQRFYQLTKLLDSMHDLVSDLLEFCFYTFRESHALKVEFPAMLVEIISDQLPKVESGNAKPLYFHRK
Description: The solvents, reagents, and ligands employed in the functional assay are readily available from commercial sources, or can be prepared by one of ordinary skill in the art.
Human embryonic kidney HEK293 cells are transfected with steroid hormone receptor and reporter gene plasmids using Fugene™ transfection reagent. Briefly, the reporter plasmid containing two copies of probasin ARE and TK(thymidine kinase) promoter upstream of the luciferase reporter cDNA, is transfected into HEK293 cells with a plasmid constitutively expressing human androgen receptor (AR) using viral CMV(cytomegalovirus) promoter. The reporter plasmid containing two copies of GRE and TK promoter upstream of the luciferase reporter cDNA is transfected with a plasmid constitutively expressing either human glucocorticoid receptor (GR), human mineralocorticoid receptor (MR), or human progesterone receptor (PR) using viral CMV promoter. […] After 24-hours incubation with test compounds, cells are lysed and luciferase activity is determined using standard techniques.
Data are fitted to a four parameter-fit logistic curve fit to determine EC50 values. […] IC50 values may be determined similarly using antagonist mode assay data. Percent inhibitions may also be determined relative to the response in the presence of agonist alone, as described above.

[2] = target: T2, human MR (mineralocorticoid receptor) (Homo sapiens, UniProt P08235); assay: Nuclear hormone receptor competition binding assay, MR; settings: HEK293 lysate overexpressing human MR, [3H]-aldosterone; mean of n=7
T2 construct: expressed in transfected cells; host or cells: HEK293 (293-MR lysate)
T2 sequence (P08235 1-984): T1 sequence (P08235 1-984)
Method: Cell lysates from human embryonic kidney HEK293 cells overexpressing human GR (glucocorticoid receptor), AR (androgen receptor), MR (mineralocorticoid receptor), or PR (progesterone receptor) are used for receptor-ligand competition binding assays to determine Ki values.
Briefly, steroid receptor competition binding assays are run in a buffer containing 20 mM Hepes buffer (pH=7.6), 0.2 mM EDTA, 75 mM NaCl, 1.5 mM MgCl2, 20% glycerol, 20 mM sodium molybdate, 0.2 mM DTT (dithiothreitol), 20 μg/ml aprotinin and 20 μg/ml leupeptin. Typically, steroid receptor binding assays include radio-labeled ligands, such as 0.3 nM [^3H]-dexamethasone for GR binding, 0.36 nM [^3H]-methyltrienolone for AR binding, 0.25 nM [^3H]-aldosterone for MR binding, and 0.29 nM [^3H]-methyltrienolone for PR binding, and either 20 μg 293-GR lysate, 22 μg 293-AR lysate, 20 μg 293-MR lysate or 40 μg 293-PR lysate per well. Assays are typically run in 96-well format. Competing test compounds are added at various concentrations ranging from about 0.01 nM to 10 μM. Non-specific binding is determined in the presence of 500 nM dexamethasone for GR binding, 500 nM aldosterone for MR binding, or 500 nM methyltrienolone for AR and PR binding. […] After an incubation of 2 hours, plates are read in a Wallac Microbeta counter. […]

efficacy in activating transcription, MR ([1]; relative to 30 nM aldosterone): about 11% | EC50 ([1]; read-out: EC50 in activating transcription, MR): > 10000 nM | Ki [2]: ~9.2 nM
Compound: CC/C(=C1\c2ccc(F)cc2OCc2ncccc21)c1cccc(NS(C)(=O)=O)c1 [Compound (I), (E)-N-{3-[1-(8-Fluoro-11H-10-oxa-1-aza-dibenzo[a,d]cyclohepten-5-ylidene)-propyl]-phenyl}-methanesulfonamide]

Reference: patent publication US8101761B2, “(E)-N-{3-[1-(8-fluoro-11H-10-OXA-1-AZA-dibenzo [A,D] cyclohepten-5ylidene)-propyl]-phenyl}-methanesulfonamide as glucocorticoid receptor modulator for the treatment of rheumatoid arthritis” (Eli Lilly and Company, priority 2008, dated 2012)
